Experimental data published in ChEMBL document CHEMBL4627350, “Drug repurposing and rediscovery: Design, synthesis and preliminary biological evaluation of 1-arylamino-3-aryloxypropan-2-ols as anti-melanoma agents” (Bioorg Med Chem, 2020).
Calls of active or inactive are those of the source. The rule behind the calls is not given here.

Key:
SK-MEL-28 [1] = assay: Antiproliferative activity against human SK-MEL-28 cells assessed as cell growth inhibition incubated for 48 hrs by MTT assay; format: functional, cell-based; details: SK-MEL-28, 48 h
SK-MEL-5 = assay: Antiproliferative activity against human SK-MEL-5 cells assessed as cell growth inhibition incubated for 48 hrs by MTT assay; format: functional, cell-based; details: SK-MEL-5, 48 h
A-375 = assay: Antiproliferative activity against human A375 cells assessed as cell growth inhibition incubated for 48 hrs by MTT assay; format: functional, cell-based; details: A-375, 48 h
SK-MEL-28 [2] = assay: Inhibition of colony formation in human SK-MEL-28 cells at 5 to 100 uM supplemented with fresh medium containing compound every 72 hrs for 2 weeks by crystal violet staining based assay; format: functional, cell-based
SK-MEL-28 [3] = assay: Cell cycle arrest in human SK-MEL-28 cells assessed as accumulation at G2/M phase at 5 nM after 24 hrs by […] dye staining based fluorescence assay; format: functional

| Structure (SMILES) | IC50 (SK-MEL-28 [1]) [µM] | IC50 (SK-MEL-5) [µM] | IC50 (A-375) [µM] | inhibition (SK-MEL-28 [2]) | Activity (SK-MEL-28 [3]) |
| --- | --- | --- | --- | --- | --- |
| COc1ccccc1OCCNC[C@H](O)COc1cccc2[nH]c3ccccc3c12 | 10.5 | 7.04 | 14.7 |  |  |
| COc1ccccc1OCCNCCCOc1cccc2[nH]c3ccccc3c12 | 6.66 | 6.18 | 6.88 |  |  |
| c1ccc(Nc2cccc(OCCCNCc3ccc(-c4ccccc4)cc3)c2)cc1 | 3.8 | 4.72 | 2.31 |  |  |
| c1ccc(N2CCN(CCCOc3cccc4[nH]c5ccccc5c34)CC2)cc1 | 19.2 | 36.9 | 22.6 |  |  |
| Cc1ccc2cccc(NCCCOc3cccc4[nH]c5ccccc5c34)c2n1 | 19.8 | 16.4 | 22.3 |  |  |
| COc1ccccc1N1CCN(CCCOc2cccc3[nH]c4ccccc4c23)CC1 | 11.4 | 13.7 | 10.8 |  |  |
| O[C@@H](CNCc1ccc(-c2ccccc2)cc1)COc1cccc2[nH]c3ccccc3c12 | 4.99 | 2.69 | 5.22 |  |  |
| c1ccc(N2CCN(CCCOc3cccc4[nH]c5ccccc5c34)CC2)nc1 | 15.5 | 11.5 | 13.9 |  |  |
| c1ccc(-c2ccc(CNCCCOc3cccc4[nH]c5ccccc5c34)cc2)cc1 | 4.39 | 4.28 | 6.59 |  |  |
| CC(C)NCC(O)COc1cccc2ccccc12 (centres undefined) |  |  |  | Active |  |
| COc1cc2c(c(OC)c1OC)-c1ccc(OC)c(=O)cc1[C@@H](NC(C)=O)CC2 |  |  |  |  | Active |
| COc1ccccc1OCCNCC(O)COc1cccc2ccccc12 (racemic) | 13.5 | 10.1 | 18.9 |  |  |
| COc1ccccc1N1CCN(CC(O)COc2cccc3[nH]c4ccccc4c23)CC1 (racemic) | 14.1 | 13.6 | 13.9 |  |  |
| OC(COc1cccc2[nH]c3ccccc3c12)CN1CCN(c2ccccc2)CC1 (racemic) | 18.5 | 17 | 16.3 |  |  |
| CC(C)NCC(O)COc1ccc(-c2ccccc2)cc1 (racemic) | 11.9 | 12 | 11 |  |  |
| OC(CNc1ccc(-c2ccccc2)cc1)COc1cccc2[nH]c3ccccc3c12 (racemic) | 12.5 | 13.9 | 13.5 |  |  |
